Patent US6949558B2, “Enhancement of taxane-based chemotherapy by a CDK1 antagonist” (Yale University, priority 2001, dated 2005)

Legend:
MCF-7 cells = assay: Apoptosis by DNA content analysis and flow cytometry in MCF-7 cells; type: cell-based, human
Procedure: Cervical carcinoma HeLa (functionally inactivated p53) cells or breast carcinoma MCF-7 (wild type p53) cells were plated at 50-60% confluency in C-6 wells. […]
After 4, 8, 16, and 32 hours of incubation, without removing taxol from the wells, purvalanol A was added at three increasing concentrations, 1, 10 and 20 uM (FIG. 1). A control was performed with addition of purvalanol A at the 0-h time point.
The cell populations were harvested at increasing time intervals from the 0-h time point or corresponding to the addition of purvalanol A. Apoptosis was analyzed by DNA content analysis and flow cytometry (DAPI staining).

[1] = system: p34^cdc2 kinase activity (MPM-2 epitope) in HeLa cells; assay: MPM-2 mitotic phosphoepitope expression (p34^cdc2 kinase activity) in HeLa cells; type: cell-based, human; conditions: HeLa; taxol 0.2 μM, sustained for a 32-h culture
[2] = system: survivin expression in PC3 cells; assay: Survivin expression by Western blotting in PC3 cells; type: cell-based; conditions: taxol
[3] = system: survivin expression in HT2-19 cells; assay: Survivin expression by Western blotting in HT2-19 cells; type: cell-based; conditions: taxol 0.2 μM
Text: Cell Cultures and Antibodies: Breast carcinoma MCF-7, prostate carcinoma PC3, and cervical carcinoma HeLa cells (American Type Culture Collection, Manassas, Va.) were maintained in culture according to the supplier's recommendations. HT2-19 cells with conditional inactivation of the p34^cdc2 gene were described previously (J. E. Itzhaki et al. (1997) Nat. Gen. 15: 258-265). In this cell line, removal of IPTG from the culture medium results in inactivation of the second p34^cdc2 allele (J. E. Itzhaki et al. (1997) Nat. Gen. 15: 258-265). For spindle checkpoint activation, the various cell types were treated with taxol (0.2-2 μM, Sigma Chemical Co., St. Louis, Mo.), vincristine (100 nM, Sigma) or cisplatin (3 μM, Sigma) for 16 h at 37° C. For genetic ablation of p34^cdc2, HT2-19 cells were washed and cultivated in the absence of IPTG for 48-72 h before analysis of apoptosis (see below) or expression of survivin or p34^cdc2, by Western blotting. In some experiments, taxol (0.2 μM) was added to HT2-19 cells simultaneously with the withdrawal of IPTG, and cells were processed as described above. […] For viral transduction, HT2-19 cells in the absence of IPTG were infected with pAd-GFP or pAd-Survivin at multiplicity of infection (m.o.i.) of 50, and analyzed after a 48-72 h culture for changes in cell cycle progression and apoptosis. […]

survivin promoter = assay: Survivin promoter-luciferase reporter expression in MCF-7 cells; type: cell-based, human; conditions: taxol 2 μM, all time intervals examined
Procedure: Luciferase activity was determined after 0-24 h incubation at 37° C. on a Lumat luminometer (LB9510), and normalized to β-galactosidase activity used as an internal control.
Luciferase values were normalized to β-galactosidase expression.

[4] = system: survivin RNA in HeLa cells; assay: Northern hybridization of survivin RNA in HeLa cells; type: cell-based, human; conditions: presence or absence of taxol
MCF-7 tumors = assay: Breast cancer xenograft model (Example 8); type: in vivo, CB17 SCID/beige mice; conditions: taxol alone 2.5 or 5 mg/kg, Purvalanol A alone 20 mg/kg, i.p.
Procedure: Breast Cancer Xenograft Model: All experiments involving animals were approved by the institutional animal cure and use committee. Six- to eight-week old female CB17 SCID/beige mice (Taconic Farms, Germantown, N.Y.) were injected s.c. into the flanks with 2.5×10^6 exponentially growing MCF-7 cells in 250 μl of sterile PBS, pH 7.4. […] Animals were injected i.p. with taxol alone (2.5 or 5 mg/kg), Purvalanol A alone (20 mg/kg) or the sequential combination of taxol-Purvalanol A for two consecutive days each divided by a day with no treatment. For single agent treatment, vehicle was given in place of taxol or Purvalanol A with the same schedule. Each complete cycle was separated by 2 d without treatment. Tumor volume was measured in the three dimensions with a caliper. Animals with tumor burden >3000 mm^3 were sacrificed (Survival).
Statistical Analysis: All in vitro experiments were repeated at least three times. […] The survival curves were compared using the log-rank test. This test generates a P value testing the null hypothesis that the survival curves are identical in the overall populations.

caspase-9 = assay: Caspase-9 processing by Western blotting in HeLa cells; conditions: taxol 0.2 μM, Purvalanol A 20 μM or sequential combination, 16 h
[5] = taxol 2 μM, adriamycin 100 nM, cis-platin 3 μM (Example 7)

In the case of `CC(=O)O[C@H]1C(=O)[C@@]2(C)[C@H]([C@H](OC(=O)c3ccccc3)[C@]3(O)C[C@H](OC(=O)[C@H](O)[C@@H](NC(=O)c4ccccc4)c4ccccc4)C(C)=C1C3(C)C)[C@]1(OC(C)=O)CO[C@@H]1C[C@@H]2O` [taxol, Paclitaxel], the “apoptosis (hypodiploid cell fraction)” value (MCF-7 cells; taxol 0.2 μM for 0 to 32 hours) is reported as “virtually no apoptosis”, the cell cycle arrest (MCF-7 cells; taxol 0.2 μM for 0 to 32 hours) is reported as “uniform M arrest” and the apoptosis (MCF-7 cells; [5]) is reported as “negligible apoptosis”. The cell cycle arrest (MCF-7 cells; [5]) was “G2/M arrest”, the cell cycle arrest (MCF-7 cells; taxol 0.2-2 μM (Example 8)) was “sustained (48-72 h) mitotic arrest” and the “p34^cdc2 kinase activity” value [1] was “elevated p34^cdc2 kinase activity”. For the same molecule, the survivin expression [2] was “increased expression of survivin”, the survivin expression ([3]; HT2-19 cells in the absence of IPTG (p34^cdc2 −/−)) was “only a minimally detectable increase in survivin expression” and the survivin levels ([3]; IPTG+ HT2-19 cells (p34^cdc2 +/−)) was “increased survivin levels”. For the same molecule, the “survivin gene expression (promoter-luciferase)” value (survivin promoter) was “significantly inhibited survivin gene expression”, the “survivin RNA levels” value [4] was “no significant changes in survivin RNA levels” and the “kinetics of tumor growth” value (MCF-7 tumors) was “did not affect the kinetics of tumor growth”. The caspase-9 processing (caspase-9) was “did not result in significant caspase-9 cleavage”.
